In ChEMBL document CHEMBL1201862, “PubChem BioAssay data set” (2004):
Activity calls are given as the source filed them.

How the values were obtained:
[1] = non-specific cell cytotoxicity, dose response, cytotoxicity control for PAX8 inhibitor project, plate reader, dry powder samples (AID 743021); type: functional, cell-based
[2] = HepG2 cell cytotoxicity, dose response, cytotoxicity control for Shn3 inhibitor project, CellTiter-Glo, cherry-picked (AID 624134); type: functional, cell-based
Paired box protein Pax-8 = Paired box protein Pax-8 (Homo sapiens, UniProt Q06710); assay: inhibitors of PAX8-driven TPO luciferase reporter, dose response, RMG-I cells, cherry-pick (AID 687027); type: functional, cell-based;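 further: luciferase reporter driven by Pax8 target thyroperoxidase promoter measured by SteadyGlo luminescence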
[3] = control 3'UTR Renilla luciferase suppression, dose response, counter-screen for Shn3 inhibitor project, cell-based, Clone20-Shn3RL, cherry-picked (AID 624133); type: functional
[4] = Shn3 3'UTR reporter inhibitors, dose response, cell-based, Clone20 osteoblasts, firefly luciferase, cherry-picked (AID 624132); type: functional;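 further: firefly luciferase luminescence from reporter carrying the Shn3 3'UTR in osteoblasts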
[5] = target: T1, Microphthalmia-associated transcription factor (Homo sapiens, UniProt O75030); assay: TRPM1 promoter luciferase signal decrease, dose response, MITF inhibitor project, cell-based, SK-MEL-5, cherry-picked, set 3 (AID 493073); type: functional
T1 sequence (O75030 whole entry): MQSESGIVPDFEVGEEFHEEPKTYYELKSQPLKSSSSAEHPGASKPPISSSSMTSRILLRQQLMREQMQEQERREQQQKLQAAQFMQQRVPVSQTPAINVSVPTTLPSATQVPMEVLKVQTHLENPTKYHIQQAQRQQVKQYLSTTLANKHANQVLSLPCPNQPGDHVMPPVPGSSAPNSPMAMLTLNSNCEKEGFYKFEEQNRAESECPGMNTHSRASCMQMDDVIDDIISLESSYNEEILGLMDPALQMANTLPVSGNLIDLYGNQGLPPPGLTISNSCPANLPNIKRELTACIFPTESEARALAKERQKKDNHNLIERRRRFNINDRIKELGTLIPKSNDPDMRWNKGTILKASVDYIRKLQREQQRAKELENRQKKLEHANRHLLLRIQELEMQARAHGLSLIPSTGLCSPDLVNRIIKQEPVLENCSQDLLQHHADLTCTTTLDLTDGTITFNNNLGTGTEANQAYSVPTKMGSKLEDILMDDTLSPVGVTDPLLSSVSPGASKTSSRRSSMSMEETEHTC

CHO = assay: cytotoxicity in TLR9-MyD88 CHO cells, dose response, cytotoxicity control for TLR9-MyD88 binding inhibitor project, cell-based, luminescence (AID 588339); type: functional, hamster; conditions: Cricetulus griseus;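 further: CHO cells stably coexpressing TLR9 and MyD88 fusions from primary screen; compound exposure lasted 48 hours before viability readout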
HeLa = assay: HeLa cell cytotoxicity, dose response, cytotoxicity control for MITF activator project, CellTiter-Glo luminescence, cherry-pick samples (AID 540259); type: functional, cell-based; conditions: Homo sapiens
[6] = target: Heat shock protein HSP 90-alpha (Homo sapiens, UniProt P07900); type: functional, organism-based
[7] = inhibitors of SNCA 5'UTR-driven reporter translation, confirmation, H4 neuroglioma cells, luminescence (AID 1988); type: functional, cell-based
Vero [8] = assay: cells; type: functional; conditions: Chlorocebus sabaeus
[9] = Luminescence Cell-Based Dose Response HTS to Identify Inhibitors of 5'UTR Stem-Loop Driven Prion Protein mRNA Translation in H4 Neuroglioblastoma Cells. [Related pubchem assays: 1827 (Project Summary), 1813 (Primary HTS)]; type: functional
Vero [10] = assay: cells; type: functional, cell-based; conditions: Chlorocebus sabaeus
[11] = HEp-2 cell cytotoxicity, dose response, cytotoxicity control for RSV inhibitor project, HTS (AID 2410); type: functional; conditions: human respiratory syncytial virus
Vero [12] = assay: host cell cytotoxicity of antiviral hits, dose response, cytotoxicity control for West Nile virus antiviral project, secondary assay (AID 1650); type: functional; conditions: Chlorocebus sabaeus
[13] = inhibitors of firefly luciferase expression or activity, dose response, H4 neuroglioma cells, luminescence (AID 1990); type: functional, cell-based
Cytochrome P450 3A4 = Cytochrome P450 3A4 (Homo sapiens, UniProt P08684);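 further: CYP3A4 tested as one member of a cytochrome P450 panel screen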
Cytochrome P450 1A2 = target: T2, Cytochrome P450 1A2 (Homo sapiens, UniProt P05177);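 further: PubChem cytochrome P450 panel assay, CYP1A2 panel member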
T2 sequence (P05177 whole entry): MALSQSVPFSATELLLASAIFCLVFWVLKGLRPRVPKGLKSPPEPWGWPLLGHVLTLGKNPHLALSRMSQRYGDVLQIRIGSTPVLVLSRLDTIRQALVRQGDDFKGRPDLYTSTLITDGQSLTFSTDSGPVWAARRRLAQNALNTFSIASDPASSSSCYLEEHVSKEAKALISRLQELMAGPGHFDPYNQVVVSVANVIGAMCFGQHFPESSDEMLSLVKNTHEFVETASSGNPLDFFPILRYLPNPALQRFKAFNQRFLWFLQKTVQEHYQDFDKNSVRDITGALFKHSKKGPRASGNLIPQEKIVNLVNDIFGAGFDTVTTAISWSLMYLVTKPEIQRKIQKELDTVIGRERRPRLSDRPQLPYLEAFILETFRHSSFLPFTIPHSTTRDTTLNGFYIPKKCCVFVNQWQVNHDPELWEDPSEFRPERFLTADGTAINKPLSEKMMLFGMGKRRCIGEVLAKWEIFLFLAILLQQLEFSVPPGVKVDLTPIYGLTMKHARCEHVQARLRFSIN

[14] = target: T3, Heat shock factor protein 1 (Mus musculus, UniProt P38532); assay: HSF1 potentiators in luciferase reporter cells, confirmation, cell-based, NIH3T3, luminescence, dose retest (AID 435004); type: functional;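 further: stress induced by proteasome inhibitor MG132 added 30 min after compound; luciferase reporter driven by HSF1 response element in NIH3T3 cells; actives raise luminescence as potentiators of the MG132 stress response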
T3 sequence (P38532 whole entry): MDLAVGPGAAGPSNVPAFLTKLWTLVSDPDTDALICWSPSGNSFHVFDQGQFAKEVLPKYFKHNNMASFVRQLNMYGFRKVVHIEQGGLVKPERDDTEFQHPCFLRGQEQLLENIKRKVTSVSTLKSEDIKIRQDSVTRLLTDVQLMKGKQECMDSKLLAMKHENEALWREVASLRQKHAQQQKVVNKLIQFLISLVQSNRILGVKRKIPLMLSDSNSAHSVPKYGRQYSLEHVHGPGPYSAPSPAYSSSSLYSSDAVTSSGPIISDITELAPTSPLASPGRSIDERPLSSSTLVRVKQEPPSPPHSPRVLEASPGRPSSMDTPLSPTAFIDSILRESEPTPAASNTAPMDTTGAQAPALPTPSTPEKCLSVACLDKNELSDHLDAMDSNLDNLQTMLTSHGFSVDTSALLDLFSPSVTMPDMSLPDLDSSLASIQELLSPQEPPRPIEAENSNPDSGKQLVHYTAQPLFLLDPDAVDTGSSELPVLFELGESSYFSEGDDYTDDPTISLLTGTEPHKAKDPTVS

Cytochrome P450 3A4, sequence (P08684 whole entry): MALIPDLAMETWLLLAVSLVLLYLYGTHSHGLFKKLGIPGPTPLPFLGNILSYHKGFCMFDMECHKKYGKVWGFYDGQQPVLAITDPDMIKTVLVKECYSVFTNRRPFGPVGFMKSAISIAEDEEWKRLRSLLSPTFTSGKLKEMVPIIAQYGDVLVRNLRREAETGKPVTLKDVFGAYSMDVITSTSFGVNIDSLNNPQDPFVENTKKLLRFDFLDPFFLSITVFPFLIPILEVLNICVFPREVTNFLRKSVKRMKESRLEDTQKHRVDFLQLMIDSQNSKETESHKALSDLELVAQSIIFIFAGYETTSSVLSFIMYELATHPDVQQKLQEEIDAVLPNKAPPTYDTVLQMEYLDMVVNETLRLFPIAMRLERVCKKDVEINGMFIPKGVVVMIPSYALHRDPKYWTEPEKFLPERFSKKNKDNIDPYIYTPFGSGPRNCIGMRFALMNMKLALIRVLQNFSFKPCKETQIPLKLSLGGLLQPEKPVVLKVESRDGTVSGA
Paired box protein Pax-8, sequence (Q06710 whole entry): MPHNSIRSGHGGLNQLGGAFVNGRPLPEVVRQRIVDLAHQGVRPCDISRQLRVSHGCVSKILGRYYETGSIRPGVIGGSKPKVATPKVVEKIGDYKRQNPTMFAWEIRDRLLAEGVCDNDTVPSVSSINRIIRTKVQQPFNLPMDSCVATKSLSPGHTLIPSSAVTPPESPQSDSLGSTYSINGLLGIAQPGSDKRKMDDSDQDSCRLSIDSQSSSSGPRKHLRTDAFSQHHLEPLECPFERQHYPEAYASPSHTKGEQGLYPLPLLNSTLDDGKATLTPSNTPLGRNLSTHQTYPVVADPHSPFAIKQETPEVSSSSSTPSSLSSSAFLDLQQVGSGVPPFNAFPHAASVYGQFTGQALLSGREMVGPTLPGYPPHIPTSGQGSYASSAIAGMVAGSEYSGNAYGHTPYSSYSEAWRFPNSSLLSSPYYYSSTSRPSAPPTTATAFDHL

With `CS(=O)(=O)c1ccc(C(=O)OCC(=O)NCc2cccs2)cc1[N+](=O)[O-]` the AC50 [1] was 26 µM (active), the AC50 [2] was 62.3 µM (active) and the AC50 (Paired box protein Pax-8) was 14 µM (active). The AC50 [3] was 13.4 µM (active), the AC50 [4] was 2.07 µM (active) and the AC50 [5] was 11.7 µM (active). For the same molecule, the IC50 (CHO) was 4.83 µM (active).
For `Cc1ccc(-c2noc(C3CCCCC3)n2)cc1`, the AC50 (HeLa) was 79.6 µM (active).
With `CC1(C(=O)c2ccccc2)C2c3c(ccc4ccccc34)OC(=O)C21C(=O)N1CCOCC1` (configuration not stated) the AC50 [6] was 4.17 µM (active).
With `O=S(=O)(c1cccs1)N1CCN(c2ccnc3cc(Cl)ccc23)CC1` the EC50 [7] was > 120 µM (not active), the CC50 (Vero [8]) was 22 µM (active) and the EC50 [9] was 13.1 µM (active). For the same molecule, the IC50 (Vero [10]) was > 25 µM (active), the CC50 [11] was 14.3 µM (active) and the CC50 (Vero [12]) was 30 µM (active). For the same molecule, the EC50 [13] was 13.5 µM (active).
For `S=C1SCN(CCN2CCOCC2)CN1Cc1ccccc1`, the CC50 (Vero [8]) was 24.4 µM (active), the IC50 (Vero [10]) was > 25 µM (active) and the AC50 (Cytochrome P450 3A4) was 28.2 µM (inconclusive). The AC50 (Cytochrome P450 1A2) was 6.31 µM (inconclusive).
For `O=C(c1ccc2c(=O)n(C3CCCC3)c(=S)[nH]c2c1)N1CCc2ccccc21`, the AC50 [6] was 3.49 µM (active) and the EC50 [14] was > 260 µM (inactive).
